This note sets out measurements from patent publication US7638678B2, “Animal model for perimenopause and menopause and methods of inducing ovarian failure” (The Arizona Board of Regents, priority 2002, dated 2009).

For one test, the system named is caspase-3. Kind of test: Caspase-3 protease activity in isolated small pre-antral follicles. Format: in vivo, B6C3F1 mice. The method, then: Follicle Isolation: Small preantral follicles (fraction 1, 25-100 μm in diameter), were prepared by gentle enzymatic dissociation of ovaries and hand sorting with micropipettes. Pools of follicles were prepared from both ovaries of six mice in each treatment (control or VCD) for each observation. Following isolation, follicles were washed twice with M199 medium and stored at −20° C.
Caspase-3 Protease Activity Measurement: The cleavage activity of caspase-3 was measured by a fluorescent activity assay. Briefly, the enzymatic reaction was carried out at 37° C. in protease assay buffer (20 mM HEPES, 100 mM NaCl, 10 mM dithiothreitol, 1 mM EDTA, 0.1% [w/v] 3-3 ([3-cholamidopropyl] dimethylammonio)-1-propanesulfanate, and 10% sucrose pH 7.2). Cellular protein (60-180 μg) was incubated with 50 μM of caspase-3 substrate, DEVD-AMC, at 37° C. for 60 minutes. Substrate cleavage was detected by measurement of the fluorescence of free 7-amino-4-methylcoumarin (AMC) with an F-2000 fluorescence spectrophotometer (Hitachi, Ltd., Tokyo, Japan) at 460 nm emission upon excitation at 380 nm.

For a further test, the system named is ovarian follicles. The experiment in a line: Follicle depletion by other routes and vehicles. The conditions noted are these: i.p. injection in DMSO vehicle. The class given is in vivo.

Regarding `C1CC2OC2CC1C1CO1` (stereo not drawn) [VCD, 4-vinylcyclohexene diepoxide], the “Cleavage activity of caspase-3 in isolated small pre-antral follicles relative to controls” value in the test on caspase-3 (160 mg/kg or 80 mg/kg i.p., 10 d, 4 hours after final treatment) is “increased”. Moreover, in the test with caspase-3 (160 mg/kg/day i.p., 10 d of dosing), the “Caspase-3 activity in small pre-antral (primordial and primary) follicles” value is 14.37 flourescent units/40 μg protein. The “Follicular depletion with DMSO vehicle versus sesame oil” value with ovarian follicles is reported as “achieves the same follicular depletion”.
